# Columns and labels:
# MRC5 = experiment: Antiproliferative activity against human MRC5 cells assessed as inhibition of cell growth measured after 48 hrs by MTT assay; format: toxicity, cell-based; conditions: mrc5
# [1] = Toxicity in BALB/c mouse assessed as morphological changes in kidney at 2 to 4 mg/kg by H and E staining based analysis; format: organism-based; conditions: in vivo, dose 2-4 mg/kg
# [2] = Toxicity in BALB/c nude mouse assessed as dermatitis at 4 mg/kg, sc administered every 2 days for 14 days; format: organism-based; conditions: in vivo, 336 h, time 14 day
# [3] = Drug metabolism in BALB/C nude mouse kidney xenografted with human A549 cells at 2 mg/kg measured after 2 to 6 hrs by UPLC-3Q analysis; format: ADME, organism-based; conditions: in vivo, time 2-6 hrs
# [4] = Toxicity in BALB/c nude mouse assessed as body weight loss at 4 mg/kg, sc administered every 2 days for 14 days; format: organism-based; conditions: in vivo, 336 h, time 14 day
# A549 [5] = experiment: Induction of apoptosis in human A549 cells assessed as necrotic cells at 0.25 uM measured after 48 hrs by annexin V and PI staining based flow cytometry analysis (reference value: 1.47%); format: functional
# A549 [6] = experiment: Induction of apoptosis in human A549 cells assessed as late apoptotic cells at 0.1 uM measured after 48 hrs by annexin V and PI staining based flow cytometry analysis (reference value: 4.70%); format: functional
# PANC-1 = experiment: Antiproliferative activity against human PANC-1 cells assessed as inhibition of cell growth measured after 48 hrs by MTT assay; format: functional, cell-based; conditions: panc-1
# HepG2 = experiment: Antiproliferative activity against human HepG2 cells assessed as inhibition of cell growth measured after 48 hrs by MTT assay; format: functional, cell-based; conditions: hepg2
# A549 [7] = experiment: Antitumor activity against human A549 cells xenografted in BALB/c nude mouse assessed as inhibition of tumor growth at 4 mg/kg, sc administered every 2 days for 14 days relative to control; format: functional; parameters: scale not given: the % may be the effect or the level left; conditions: time 14 day
# A549 [8] = experiment: Antiproliferative activity against survivin silenced human A549 cells assessed as inhibition of cell growth measured after 48 hrs by MTT assay; format: functional, cell-based; conditions: A549, 48 h
# [9] = Selectivity index, ratio of IC50 for mouse L929 cells to IC50 for human A549 cells; format: toxicity; conditions: L929 cells and A549 cells, read-out: Ratio IC50
# A549 [10] = experiment: Induction of apoptosis in human A549 cells assessed as early apoptotic cells at 0.04 uM measured after 48 hrs by annexin V and PI staining based flow cytometry analysis (reference value: 0.71%); format: functional
# A549 [11] = experiment: Induction of apoptosis in human A549 cells assessed as viable cells at 0.04 uM measured after 48 hrs by annexin V and PI staining based flow cytometry analysis (reference value: 93.3%); format: functional; conditions: Homo sapiens, A549, 48 h, read-out: Activity
# A549 [12] = experiment: Induction of apoptosis in human A549 cells assessed as late apoptotic cells at 0.04 uM measured after 48 hrs by annexin V and PI staining based flow cytometry analysis (reference value: 4.70%); format: functional
# [13] = Toxicity in BALB/c mouse assessed as morphological changes in liver at 2 to 4 mg/kg by H and E staining based analysis; format: organism-based; conditions: in vivo, dose 2-4 mg/kg
# A549 [14] = experiment: Induction of apoptosis in human A549 cells assessed as viable cells at 0.1 uM measured after 48 hrs by annexin V and PI staining based flow cytometry analysis (reference value: 93.3%); format: functional; conditions: Homo sapiens, A549, 48 h, read-out: Activity
smiles,measurement,setting,value
Cn1c[n+](C)c2c1C(=O)c1cc3ccccc3cc1C2=O.[I-],IC50,MRC5,6900 nM
same,Activity,[1],Non-Toxic
same,Activity,[2],Non-Toxic
same,Drug metabolism,[3],Metabolite_Detected
same,Activity,[4],Non-Toxic
same,Activity,A549 [5],4.32%
same,Activity,A549 [6],81.9%
same,IC50,PANC-1,80 nM
same,IC50,HepG2,250 nM
same,Activity,A549 [7],83.6%
same,IC50,A549 [8],980 nM
same,selectivity ratio,[9],2390
same,Activity,A549 [10],6.08%
same,viability at 0.04 µM,A549 [11],27.8%
same,Activity,A549 [12],61.4%
same,Activity,[13],Non-Toxic
same,viability at 0.1 µM,A549 [14],8.7%

# Reference: ChEMBL document CHEMBL5375989, “Pioneering 4,11-Dioxo-4,11-dihydro-1H-anthra[2,3-d]imidazol-3-ium Compounds as Promising Survivin Inhibitors by Targeting ILF3/NF110 for Cancer Therapy” (J Med Chem, 2023)
